Results: paper PMC5218480 (PLoS ONE, 2017)

Test system: MV-4-11 cells
Assay: Gene expression microarray analysis (Affymetrix PrimeView) and GSEA
Assay type: cell-based, human
Design: RFU PODN (11730768_x_at) / Fold change /veh PODN (11730768_x_at) / RFU LINC00158 (11744669_a_at) / Fold change /veh LINC00158 (11744669_a_at) / RFU DUSP10 (11751237_a_at) / Fold change /veh DUSP10 (11751237_a_at) / RFU ID3 (11757404_x_at) / Fold change /veh ID3 (11757404_x_at) / RFU PLEKHG5 (11737974_s_at) / Fold change /veh PLEKHG5 (11737974_s_at) / RFU LRRC4B (11730491_at) / Fold change /veh LRRC4B (11730491_at) / RFU GIMAP4 (11747438_a_at) / Fold change /veh GIMAP4 (11747438_a_at) / RFU KRT8 (11758183_x_at) / Fold change /veh KRT8 (11758183_x_at) / RFU CNN1 (11734310_a_at) / Fold change /veh CNN1 (11734310_a_at) / RFU VPS37D (11726825_at) / Fold change /veh VPS37D (11726825_at) / RFU C10orf10 (11716522_x_at) / Fold change /veh C10orf10 (11716522_x_at) / RFU KIR2DL2 /// KIR2DL4 /// KIR2DL5A /// KIR2DL5B /// KIR2DS1 /// KIR2DS2 /// KIR2DS3 /// KIR2DS4 /// KIR3DL3 /// KIR3DL3 /// KIR3DS1 (11738374_at) / Fold change /veh KIR2DL2 /// KIR2DL4 /// KIR2DL5A /// KIR2DL5B /// KIR2DS1 /// KIR2DS2 /// KIR2DS3 /// KIR2DS4 /// KIR3DL3 /// KIR3DL3 /// KIR3DS1 (11738374_at) / RFU C1QL1 (11718748_at) / Fold change /veh C1QL1 (11718748_at) / RFU TMPRSS4 (11747572_a_at) / Fold change /veh TMPRSS4 (11747572_a_at) / RFU HAMP (11756126_x_at) / Fold change /veh HAMP (11756126_x_at) / RFU RNFT2 (11725882_a_at) / Fold change /veh RNFT2 (11725882_a_at) / RFU NR4A2 (11747474_a_at) / Fold change /veh NR4A2 (11747474_a_at) / RFU ABCC12 (11746883_a_at) / Fold change /veh ABCC12 (11746883_a_at) / RFU TMEM136 (11760407_x_at) / Fold change /veh TMEM136 (11760407_x_at) / RFU CLDN22 /// WWC2 (11732394_at) / Fold change /veh CLDN22 /// WWC2 (11732394_at) / RFU HLA-DPB1 (11760878_x_at) / Fold change /veh HLA-DPB1 (11760878_x_at) / RFU SPINT1 (11716480_a_at) / Fold change /veh SPINT1 (11716480_a_at) / RFU GAP43 (11754022_s_at) / Fold change /veh GAP43 (11754022_s_at) / RFU A4GNT (11735810_at) / Fold change /veh A4GNT (11735810_at) / RFU PRB3 (11715151_x_at) / Fold change /veh PRB3 (11715151_x_at) / RFU TUBB4B (11761932_at) / Fold change /veh TUBB4B (11761932_at) / RFU CAPN14 (11732068_a_at) / Fold change /veh CAPN14 (11732068_a_at) / RFU TMCC2 (11721928_a_at) / Fold change /veh TMCC2 (11721928_a_at) / RFU IRGQ (11745062_a_at) / Fold change /veh IRGQ (11745062_a_at) / RFU FAM174B (11720279_a_at) / Fold change /veh FAM174B (11720279_a_at) / RFU TMPRSS4 (11748680_a_at) / Fold change /veh TMPRSS4 (11748680_a_at) / RFU FAM212B (11763350_a_at) / Fold change /veh FAM212B (11763350_a_at) / RFU PLEKHG5 (11743358_a_at) / Fold change /veh PLEKHG5 (11743358_a_at) / RFU ZSCAN30 (11745921_a_at) / Fold change /veh ZSCAN30 (11745921_a_at) / RFU CMKLR1 (11741424_a_at) / Fold change /veh CMKLR1 (11741424_a_at) / RFU LOC101060620 /// MAPK8IP1 (11723275_at) / Fold change /veh LOC101060620 /// MAPK8IP1 (11723275_at) / RFU SPTSSB (11747773_x_at) / Fold change /veh SPTSSB (11747773_x_at) / RFU PRSS12 (11739890_at) / Fold change /veh PRSS12 (11739890_at) / RFU BIN1 (11741810_x_at) / Fold change /veh BIN1 (11741810_x_at) / RFU WNT11 (11732464_a_at) / Fold change /veh WNT11 (11732464_a_at) / RFU C10orf10 (11716521_a_at) / Fold change /veh C10orf10 (11716521_a_at) / RFU C5orf56 (11738089_at) / Fold change /veh C5orf56 (11738089_at) / RFU CYB561 (11721691_x_at) / Fold change /veh CYB561 (11721691_x_at) / RFU ANKRD19P (11752326_a_at) / Fold change /veh ANKRD19P (11752326_a_at) / RFU OR2T12 /// OR2T33 /// OR2T8 (11738714_s_at) / Fold change /veh OR2T12 /// OR2T33 /// OR2T8 (11738714_s_at) / RFU VCAN (11748164_a_at) / Fold change /veh VCAN (11748164_a_at) / RFU JSRP1 (11732532_at) / Fold change /veh JSRP1 (11732532_at) / RFU KRTAP10-11 (11738290_x_at) / Fold change /veh KRTAP10-11 (11738290_x_at) / RFU MYO3A (11730013_a_at) / Fold change /veh MYO3A (11730013_a_at) / RFU EBF3 (11725865_a_at) / Fold change /veh EBF3 (11725865_a_at) / RFU CAMK2N1 (11719241_x_at) / Fold change /veh CAMK2N1 (11719241_x_at) / RFU C5orf56 (11738088_a_at) / Fold change /veh C5orf56 (11738088_a_at) / RFU OLFML3 (11715873_a_at) / Fold change /veh OLFML3 (11715873_a_at) / RFU LOC100653217 /// NTM (11731650_a_at) / Fold change /veh LOC100653217 /// NTM (11731650_a_at) / RFU MAPK11 (11762145_a_at) / Fold change /veh MAPK11 (11762145_a_at) / RFU FIZ1 (11724087_x_at) / Fold change /veh FIZ1 (11724087_x_at) / RFU OASL (11726364_x_at) / Fold change /veh OASL (11726364_x_at) / RFU SOX15 (11748057_x_at) / Fold change /veh SOX15 (11748057_x_at) / RFU CD79A (11719716_a_at) / Fold change /veh CD79A (11719716_a_at) / RFU HIST1H1D (11736915_at) / Fold change /veh HIST1H1D (11736915_at) / RFU CASKIN2 (11723855_a_at) / Fold change /veh CASKIN2 (11723855_a_at) / RFU LOC730098 (11760151_x_at) / Fold change /veh LOC730098 (11760151_x_at) / RFU OR4N2 (11742367_at) / Fold change /veh OR4N2 (11742367_at) / RFU PRRT2 (11749266_a_at) / Fold change /veh PRRT2 (11749266_a_at) / RFU SNX32 (11753110_a_at) / Fold change /veh SNX32 (11753110_a_at) / RFU CDHR5 (11726645_a_at) / Fold change /veh CDHR5 (11726645_a_at) / RFU RCAN1 (11760418_a_at) / Fold change /veh RCAN1 (11760418_a_at) / RFU FAM167A (11723789_a_at) / Fold change /veh FAM167A (11723789_a_at) / RFU FAM26E (11764081_at) / Fold change /veh FAM26E (11764081_at) / RFU ISYNA1 (11749810_s_at) / Fold change /veh ISYNA1 (11749810_s_at) / RFU ACY1 (11761880_at) / Fold change /veh ACY1 (11761880_at) / RFU 11764098_at / Fold change /veh 11764098_at / RFU SAMD14 (11745864_x_at) / Fold change /veh SAMD14 (11745864_x_at) / RFU NPB (11741838_a_at) / Fold change /veh NPB (11741838_a_at) / RFU TMPRSS6 (11731388_a_at) / Fold change /veh TMPRSS6 (11731388_a_at) / RFU KRTAP10-2 (11738614_at) / Fold change /veh KRTAP10-2 (11738614_at) / RFU ARHGAP8 /// PRR5-ARHGAP8 (11727945_x_at) / Fold change /veh ARHGAP8 /// PRR5-ARHGAP8 (11727945_x_at) / RFU KRTAP5-7 /// NADSYN1 (11734609_at) / Fold change /veh KRTAP5-7 /// NADSYN1 (11734609_at) / RFU RASL12 (11751679_a_at) / Fold change /veh RASL12 (11751679_a_at) / RFU CDKN2B (11736163_a_at) / Fold change /veh CDKN2B (11736163_a_at) / RFU PRF1 (11729649_at) / Fold change /veh PRF1 (11729649_at) / RFU, ZNF638 /// ZNF638-IT1 / Fold change vs veh, ZNF638 /// ZNF638-IT1 / RFU, PANK3 / Fold change vs veh, PANK3 / RFU, SH3YL1 / Fold change vs veh, SH3YL1 / RFU, ZEB2 / Fold change vs veh, ZEB2 / RFU, NRIP1 / Fold change vs veh, NRIP1 / RFU, PTTG1IP / Fold change vs veh, PTTG1IP / RFU, CAPN2 / Fold change vs veh, CAPN2 / RFU, MED14 / Fold change vs veh, MED14 / RFU, SNORA58 / Fold change vs veh, SNORA58 / RFU, C1orf63 / Fold change vs veh, C1orf63 / RFU, LRRFIP1 / Fold change vs veh, LRRFIP1 / RFU, NDUFAF7 / Fold change vs veh, NDUFAF7 / RFU, SLC12A2 / Fold change vs veh, SLC12A2 / RFU, IBTK / Fold change vs veh, IBTK / RFU, ESF1 / Fold change vs veh, ESF1 / Fold change vs veh, TMEM50B / RFU, TAOK1 / Fold change vs veh, TAOK1 / RFU, ACBD3 / Fold change vs veh, ACBD3 / RFU, TMA16 / Fold change vs veh, TMA16 / RFU, RWDD3 / Fold change vs veh, RWDD3 / RFU, BCAT1 / Fold change vs veh, BCAT1 / RFU, EDEM3 / Fold change vs veh, EDEM3 / RFU, TMEM33 / Fold change vs veh, TMEM33 / RFU, WDR75 / Fold change vs veh, WDR75 / RFU, AHCTF1 / Fold change vs veh, AHCTF1 / RFU, TFRC / Fold change vs veh, TFRC / RFU, ZDHHC17 / Fold change vs veh, ZDHHC17 / RFU, NOM1 / Fold change vs veh, NOM1 / RFU, ARL8B / Fold change vs veh, ARL8B / RFU, ZBTB11 / Fold change vs veh, ZBTB11 / RFU, TAMM41 / Fold change vs veh, TAMM41 / RFU, KIAA1704 /// LOC100996395 / Fold change vs veh, KIAA1704 /// LOC100996395 / RFU, ING1 / Fold change vs veh, ING1 / RFU, TRMT61B / Fold change vs veh, TRMT61B / RFU, FUBP3 / Fold change vs veh, FUBP3 / RFU, TP53 / Fold change vs veh, TP53 / RFU, TNKS2 / Fold change vs veh, TNKS2 / RFU, ZFP14 / Fold change vs veh, ZFP14 / RFU, ACTR2 / Fold change vs veh, ACTR2 / RFU, PPP3R1 / Fold change vs veh, PPP3R1 / RFU, PIK3R1 / Fold change vs veh, PIK3R1 / RFU, HNRNPA1 / Fold change vs veh, HNRNPA1 / RFU, RNF170 / Fold change vs veh, RNF170 / RFU, ZNF28 / Fold change vs veh, ZNF28 / RFU, RNGTT / Fold change vs veh, RNGTT / RFU, OGT / Fold change vs veh, OGT / RFU, BRD1 / Fold change vs veh, BRD1 / RFU, MARS / Fold change vs veh, MARS / RFU, ZNF655 / Fold change vs veh, ZNF655 / RFU, FAHD1 / Fold change vs veh, FAHD1 / RFU, BDP1 / Fold change vs veh, BDP1 / RFU, LRRCC1 / Fold change vs veh, LRRCC1 / RFU, ARID1A / Fold change vs veh, ARID1A / RFU, ZNF146 / Fold change vs veh, ZNF146 / RFU, ZNF330 / Fold change vs veh, ZNF330 / RFU, GPN3 / Fold change vs veh, GPN3 / RFU, C9orf123 / Fold change vs veh, C9orf123 / RFU, N4BP2L2 / Fold change vs veh, N4BP2L2 / RFU, ARFIP1 / Fold change vs veh, ARFIP1 / RFU, FAM179B / Fold change vs veh, FAM179B / RFU, BCL10 / Fold change vs veh, BCL10 / RFU, UHRF1BP1L / Fold change vs veh, UHRF1BP1L / RFU, BET1 / Fold change vs veh, BET1 / RFU, CNOT2 / Fold change vs veh, CNOT2 / RFU, ZNF268 / Fold change vs veh, ZNF268 / Fold change vs veh, ZNF507 / RFU, DGCR2 / Fold change vs veh, DGCR2 / RFU, WDSUB1 / Fold change vs veh, WDSUB1 / Fold change vs veh, HSP90B1 /// MIR3652 / RFU, ADSS / Fold change vs veh, ADSS / RFU, GK / Fold change vs veh, GK / RFU, ZNF148 / Fold change vs veh, ZNF148 / RFU, TAF9 / Fold change vs veh, TAF9 / RFU, SLC1A5 / Fold change vs veh, SLC1A5 / RFU, SLMO2 / Fold change vs veh, SLMO2 / RFU, ABCC4 / Fold change vs veh, ABCC4 / RFU, LOC101060439 /// RAP1B / Fold change vs veh, LOC101060439 /// RAP1B / RFU, RFX7 / Fold change vs veh, RFX7 / RFU, GTPBP10 / Fold change vs veh, GTPBP10 / RFU, CNEP1R1 / Fold change vs veh, CNEP1R1 / RFU, BIVM-ERCC5 /// ERCC5 / Fold change vs veh, BIVM-ERCC5 /// ERCC5 / RFU, ILF3 / Fold change vs veh, ILF3 / RFU 11762660_at / Fold change /veh 11762660_at / RFU VCAN (11757783_s_at) / Fold change /veh VCAN (11757783_s_at) / RFU DDX43 (11728927_at) / Fold change /veh DDX43 (11728927_at) / RFU KRT8 (11758188_x_at) / Fold change /veh KRT8 (11758188_x_at) / RFU NKD1 (11759106_at) / Fold change /veh NKD1 (11759106_at) / RFU SRD5A1 (11742802_a_at) / Fold change /veh SRD5A1 (11742802_a_at) / RFU TPSAB1 /// TPSB2 (11721975_s_at) / Fold change /veh TPSAB1 /// TPSB2 (11721975_s_at) / RFU GSTM3 (11746129_a_at) / Fold change /veh GSTM3 (11746129_a_at) / RFU IL23R (11737362_x_at) / Fold change /veh IL23R (11737362_x_at) / RFU TMEM51 (11727254_a_at) / Fold change /veh TMEM51 (11727254_a_at) / RFU PIWIL2 (11732686_x_at) / Fold change /veh PIWIL2 (11732686_x_at) / RFU ORM1 (11744905_x_at) / Fold change /veh ORM1 (11744905_x_at) / RFU CCDC152 (11743942_at) / Fold change /veh CCDC152 (11743942_at) / RFU ECM1 (11717891_a_at) / Fold change /veh ECM1 (11717891_a_at) / RFU IL23R (11748794_a_at) / Fold change /veh IL23R (11748794_a_at) / RFU TNFAIP8L3 (11732012_x_at) / Fold change /veh TNFAIP8L3 (11732012_x_at) / RFU MBOAT4 (11741988_at) / Fold change /veh MBOAT4 (11741988_at) / RFU 11764193_at / Fold change /veh 11764193_at / RFU TMEM53 (11763286_at) / Fold change /veh TMEM53 (11763286_at) / RFU MAGEB2 (11727129_at) / Fold change /veh MAGEB2 (11727129_at) / RFU TMEM200A (11744735_a_at) / Fold change /veh TMEM200A (11744735_a_at) / RFU CCDC152 (11751479_a_at) / Fold change /veh CCDC152 (11751479_a_at) / RFU FAM211A (11726209_a_at) / Fold change /veh FAM211A (11726209_a_at) / RFU RGS16 (11746705_a_at) / Fold change /veh RGS16 (11746705_a_at) / RFU VCAN (11755009_s_at) / Fold change /veh VCAN (11755009_s_at) / RFU RHOB (11743442_s_at) / Fold change /veh RHOB (11743442_s_at) / RFU RGS16 (11720943_a_at) / Fold change /veh RGS16 (11720943_a_at) / RFU RGS16 (11720944_at) / Fold change /veh RGS16 (11720944_at) / RFU, VPS4B / Fold change vs veh, VPS4B / RFU, CREB1 / Fold change vs veh, CREB1 / RFU, DNAJC13 / Fold change vs veh, DNAJC13 / RFU, GNAQ / Fold change vs veh, GNAQ / RFU, CDK5R1 / Fold change vs veh, CDK5R1 / RFU, ZRANB3 / Fold change vs veh, ZRANB3 / RFU, CUL4A / Fold change vs veh, CUL4A / RFU, CCNY / Fold change vs veh, CCNY / RFU, UFL1 / Fold change vs veh, UFL1 / RFU, COG3 / Fold change vs veh, COG3 / RFU, DIAPH2 / Fold change vs veh, DIAPH2 / RFU, SKA2 / Fold change vs veh, SKA2 / RFU, AFF3 / Fold change vs veh, AFF3 / RFU, LMF1 / Fold change vs veh, LMF1 / RFU, IPO11 / Fold change vs veh, IPO11 / RFU, DFFB / Fold change vs veh, DFFB / RFU, FOXP1 / Fold change vs veh, FOXP1 / RFU, CARD8 / Fold change vs veh, CARD8 / RFU, STRN3 / Fold change vs veh, STRN3 / RFU, ADK / Fold change vs veh, ADK / RFU, RASSF2 / Fold change vs veh, RASSF2 / RFU, WIPF1 / Fold change vs veh, WIPF1 / RFU, LARP1B / Fold change vs veh, LARP1B / RFU, RASA1 / Fold change vs veh, RASA1 / RFU, RB1 / Fold change vs veh, RB1 / RFU, PPFIA1 / Fold change vs veh, PPFIA1 / RFU, MAT2A / Fold change vs veh, MAT2A / RFU, CCT5 / Fold change vs veh, CCT5 / RFU, WDR92 / Fold change vs veh, WDR92 / RFU, CUX1 / Fold change vs veh, CUX1 / RFU, TTC7A / Fold change vs veh, TTC7A / RFU, TMEM135 / Fold change vs veh, TMEM135 / RFU, DEPTOR / Fold change vs veh, DEPTOR / RFU, CPM / Fold change vs veh, CPM / RFU, DNAJB6 / Fold change vs veh, DNAJB6 / RFU, CACNA2D3 / Fold change vs veh, CACNA2D3 / RFU, DTX4 / Fold change vs veh, DTX4 / RFU, TFCP2 / Fold change vs veh, TFCP2 / RFU, GMCL1 /// GMCL1P1 / Fold change vs veh, GMCL1 /// GMCL1P1 / RFU, AEBP2 / Fold change vs veh, AEBP2 / RFU, SNHG1 /// SNORD22 /// SNORD25 /// SNORD26 /// SNORD27 /// SNORD28 /// SNORD29 /// SNORD31 / Fold change vs veh, SNHG1 /// SNORD22 /// SNORD25 /// SNORD26 /// SNORD27 /// SNORD28 /// SNORD29 /// SNORD31 / Fold change (Aza/veh), C12orf56 (ProbeSet 11735607_a_at) / Fold change (ACY-1035/veh), C12orf56 (ProbeSet 11735607_a_at) / Fold change (Aza/veh), FGFR1OP (ProbeSet 11751329_s_at) / Fold change (ACY-1035/veh), FGFR1OP (ProbeSet 11751329_s_at) / Fold change (Aza/veh), VPS36 (ProbeSet 11739960_a_at) / Fold change (ACY-1035/veh), VPS36 (ProbeSet 11739960_a_at) / RFU SYPL1 (11715823_x_at) / Fold change /veh SYPL1 (11715823_x_at) / RFU IGFBP7 (11715501_s_at) / Fold change /veh IGFBP7 (11715501_s_at) / RFU REEP3 (11722064_at) / Fold change /veh REEP3 (11722064_at) / RFU IGLL1 (11728026_x_at) / Fold change /veh IGLL1 (11728026_x_at): dose or concentration left out as unconfirmed
Conditions: ProbeSet 11759094_a_at; LIST D

Nc1ccc(-c2cccs2)cc1NC(=O)c1ccc2c(c1)cc(C1CC1)n2CCN1CCOCC1 [ACY-1035]
Fold change vs veh, GNAQ: 0.89
